Biological target: T1, CCR4 receptor (Homo sapiens, UniProt P51679)
T1 construct: beta-galactosidase enzyme-fragment tag; From own knowledge, PathHunter uses a ProLink/enzyme-donor fragment, usually at the receptor's C-terminus; expressed in transfected cells; host or cells: CHO-K1
T1 sequence (P51679 1-360): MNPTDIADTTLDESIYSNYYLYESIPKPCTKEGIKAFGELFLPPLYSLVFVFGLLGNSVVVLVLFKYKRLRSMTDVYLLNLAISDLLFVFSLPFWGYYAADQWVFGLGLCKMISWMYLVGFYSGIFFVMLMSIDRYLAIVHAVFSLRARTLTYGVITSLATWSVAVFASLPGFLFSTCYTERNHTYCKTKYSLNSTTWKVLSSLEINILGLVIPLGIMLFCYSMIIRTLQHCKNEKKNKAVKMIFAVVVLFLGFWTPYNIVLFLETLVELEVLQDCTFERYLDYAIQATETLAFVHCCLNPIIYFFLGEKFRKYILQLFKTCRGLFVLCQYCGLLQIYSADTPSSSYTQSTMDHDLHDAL
Assay: CCR4 antagonist activity in Beta-Arrestin Cellular Assay (PathHunter, CCL22 challenge)
Type: cell-based
Settings: CHO-K1 cells expressing the CCR4 receptor; CCL22 at EC80 (15 nM), 90 minutes; 30 min pre-incubation; read-out: Potency (CCR4 antagonist IC50 in the β-arrestin assay)
Protocol: Example 39. Determination of CCR4 antagonist activity in Beta-Arrestin Cellular Assay
CCR4 Antagonistic Activity was assessed in Beta-Arrestin Cellular Assay. Compounds were assessed in CHO-K1 cells expressing the CCR4 receptor modified to enable β-glactosidase detection of β-arrestin agonist activity stimulated by CCL22 in a chemiluminescence assay. Cells were seeded in a total volume of 20 μL into white walled, 384-well microplates and incubated at 37° C. prior to testing. Cells were pre-incubated with test compound for 30 min at 37° C. followed by agonist challenge with CCL22 at the EC80 concentration (15 nM) for 90 minutes. Assay signal was generated through a single addition of 12.5 or 15 μL ([…]) of PathHunter Detection reagent cocktail, followed by a one-hour incubation at room temperature. Microplates were read following signal generation with a PerkinElmer Envision™ instrument for chemiluminescent signal detection. Antagonist activity was analyzed using CBIS data analysis suite (ChemInnovation, CA). Antagonist activity was characterized as percentage inhibition calculated using the following formula:
An IC50 of >500 nM is designated as Potency C, an IC50 of between 500 nM and 100 nM is designated as Potency B and an IC50 of <100 nM is designated as Potency A.

Row | Compound | IC50
1 | C[C@@H](Nc1cc(N2CCC([C@H]3CCCN(CC(F)(F)F)C3)CC2)nc2ncnn12)c1ccc(Cl)cc1Cl [Example 7, N-((R)-1-(2,4-dichlorophenyl)ethyl)-5-((R)-1-(2,2,2-trifluoroethyl)-[3,4′-bipiperidin]-1′-yl)-[1,2,4]triazolo[1,5-a]pyrimidin-7-amine] | > 500 nM
2 | C[C@@H](Nc1cc(N2CCC([C@H]3CCCN(CCO)C3)CC2)nc2ncnn12)c1ccc(Cl)cc1Cl [Example 8, 2-((R)-1′-(7-(((R)-1-(2,4-dichlorophenyl)ethyl)amino)-[1,2,4]triazolo[1,5-a]pyrimidin-5-yl)-[3,4′-bipiperidin]-1-yl)ethan-1-ol] | < 100 nM
3 | C[C@@H](Nc1cc(N2CCC([C@H]3CCCN(C4CC(S(C)(=O)=O)C4)C3)CC2)nc2ncnn12)c1ccc(Cl)cc1Cl (mixture of isomers) [Example 21, N-((R)-1-(2,4-dichlorophenyl)ethyl)-5-((R)-1-(3-(methylsulfonyl)cyclobutyl)-[3,4′-bipiperidin]-1′-yl)-[1,2,4]triazolo[1,5-a]pyrimidin-7-amine] | < 100 nM
4 | C[C@@H](Nc1cc(N2CCC([C@H]3CCCN(CCCO)C3)CC2)nc2ncnn12)c1ccc(Cl)cc1Cl [Example 22, 3-((R)-1′-(7-(((R)-1-(2,4-dichlorophenyl)ethyl)amino)-[1,2,4]triazolo[1,5-a]pyrimidin-5-yl)-[3,4′-bipiperidin]-1-yl)propan-1-ol] | < 100 nM
5 | COCCN1CCC[C@H](C2CCN(c3cc(N[C@H](C)c4ccc(Cl)cc4Cl)n4ncnc4n3)CC2)C1 [Example 11, N-((R)-1-(2,4-dichlorophenyl)ethyl)-5-((R)-1-(2-methoxyethyl)-[3,4′-bipiperidin]-1′-yl)-[1,2,4]triazolo[1,5-a]pyrimidin-7-amine] | < 100 nM
6 | C[C@@H](Nc1cc(N2CCC([C@H]3CCCN([C@H]4C[C@](C)(C(=O)O)C4)C3)CC2)nc2ncnn12)c1ccc(Cl)cc1Cl [Example 18, (1R,3r)-3-((R)-1′-(7-(((R)-1-(2,4-dichlorophenyl)ethyl)amino)-[1,2,4]triazolo[1,5-a]pyrimidin-5-yl)-[3,4′-bipiperidin]-1-yl)-1-methylcyclobutane-1-carboxylic acid] | 100 to 500 nM
7 | C[C@@H](Nc1cc(N2CCC([C@H]3CCCN([C@H]4C[C@](C)(C(=O)O)C4)C3)CC2)nc2ccnn12)c1ccc(Cl)cc1F [Example 38, (1R,3r)-3-((R)-1′-(7-(((R)-1-(4-chloro-2-fluorophenyl)ethyl)amino)pyrazolo[1,5-a]pyrimidin-5-yl)-[3,4′-bipiperidin]-1-yl)-1-methylcyclobutane-1-carboxylic acid] | < 100 nM
8 | C[C@@H](Nc1cc(N2CCC([C@H]3CCCN([C@H]4C[C@](C)(C(=O)O)C4)C3)CC2)nc2ncnn12)c1ccc(F)cc1Cl [Example 26, (1R,3r)-3-((R)-1′-(7-(((R)-1-(2-chloro-4-fluorophenyl)ethyl)amino)-[1,2,4]triazolo[1,5-a]pyrimidin-5-yl)-[3,4′-bipiperidin]-1-yl)-1-methylcyclobutane-1-carboxylic acid] | < 100 nM

The remaining lines, values ahead:

Row | IC50 | Compound
9 | < 100 nM | C[C@@H](Nc1cc(N2CCC([C@H]3CCCN([C@H]4C[C@](C)(C(=O)O)C4)C3)CC2)nc2nccn12)c1ccc(Cl)cc1F [Example 27, (1R,3r)-3-((R)-1′-(5-(((R)-1-(4-chloro-2-fluorophenyl)ethyl)amino)imidazo[1,2-a]pyrimidin-7-yl)-[3,4′-bipiperidin]-1-yl)-1-methylcyclobutane-1-carboxylic acid]
10 | < 100 nM | Cc1cc(Cl)ccc1[C@@H](C)Nc1cc(N2CCC([C@H]3CCCN([C@H]4C[C@](C)(C(=O)O)C4)C3)CC2)nc2ccnn12 [Example 32, (1R,3r)-3-((R)-1′-(7-(((R)-1-(4-chloro-2-methylphenyl)ethyl)amino)pyrazolo[1,5-a]pyrimidin-5-yl)-[3,4′-bipiperidin]-1-yl)-1-methylcyclobutane-1-carboxylic acid]
11 | < 100 nM | C[C@@H](Nc1cc(N2CCC([C@H]3CCCN(Cc4ncc[nH]4)C3)CC2)nc2ncnn12)c1ccc(Cl)cc1Cl [Example 4, 5-((R)-1-((1H-imidazol-2-yl)methyl)-[3,4′-bipiperidin]-1′-yl)-N-((R)-1-(2,4-dichlorophenyl)ethyl)-[1,2,4]triazolo[1,5-a]pyrimidin-7-amine]
12 | < 100 nM | CNS(=O)(=O)CCCN1CCC[C@H](C2CCN(c3cc(N[C@H](C)c4ccc(Cl)cc4Cl)n4ncnc4n3)CC2)C1 [Example 20, 3-((R)-1′-(7-(((R)-1-(2,4-dichlorophenyl)ethyl)amino)-[1,2,4]triazolo[1,5-a]pyrimidin-5-yl)-[3,4′-bipiperidin]-1-yl)-N-methylpropane-1-sulfonamide]
13 | < 100 nM | Cc1ccc([C@@H](C)Nc2cc(N3CCC([C@H]4CCCN([C@H]5C[C@](C)(C(=O)O)C5)C4)CC3)nc3ncnn23)c(Cl)c1 [Example 30, (1R,3r)-3-((R)-1′-(7-(((R)-1-(2-chloro-4-methylphenyl)ethyl)amino)-[1,2,4]triazolo[1,5-a]pyrimidin-5-yl)-[3,4′-bipiperidin]-1-yl)-1-methylcyclobutane-1-carboxylic acid]
14 | < 100 nM | C[C@@H](Nc1cc(N2CCC([C@H]3CCCN(C)C3)CC2)nc2ncnn12)c1ccc(Cl)cc1Cl [Example 9, N-((R)-1-(2,4-dichlorophenyl)ethyl)-5-((R)-1-methyl-[3,4′-bipiperidin]-1′-yl)-[1,2,4]triazolo[1,5-a]pyrimidin-7-amine]
15 | < 100 nM | C[C@@H](Nc1cc(N2CCC(C3CCCN(CCO)C3)C2)nc2ncnn12)c1ccc(Cl)cc1Cl (single isomer, unassigned) [Example 23b]
16 | < 100 nM | C[C@@H](Nc1cc(N2CCC([C@H]3CCCN([C@H]4C[C@](C)(C(=O)O)C4)C3)CC2)nc2nccn12)c1ccc(Cl)cc1Cl [Example 36, (1R,3r)-3-((R)-1′-(5-(((R)-1-(2,4-dichlorophenyl)ethyl)amino)imidazo[1,2-a]pyrimidin-7-yl)-[3,4′-bipiperidin]-1-yl)-1-methylcyclobutane-1-carboxylic acid]
17 | < 100 nM | Cc1cc(F)ccc1[C@@H](C)Nc1cc(N2CCC([C@H]3CCCN([C@H]4C[C@](C)(C(=O)O)C4)C3)CC2)nc2ccnn12 [Example 29, (1R,3r)-3-((R)-1′-(7-(((R)-1-(4-fluoro-2-methylphenyl)ethyl)amino)pyrazolo[1,5-a]pyrimidin-5-yl)-[3,4′-bipiperidin]-1-yl)-1-methylcyclobutane-1-carboxylic acid]

Source: patent publication US20250122208A1, “CHEMOKINE RECEPTOR MODULATORS AND USES THEREOF” (RAPT THERAPEUTICS, INC., priority 2023, published 2025)
